In brackets after ≈: the same amount, converted by molar mass.
Columns and labels:
[1] = Lipophilicity, log P of the compound; settings: octanol/water
[2] = test system: Mycobacterium tuberculosis; assay: Antitubercular activity against Mycobacterium tuberculosis BCG; assay type: functional

N/N=C(\CC(=O)c1ccncc1)C(=O)c1ccncc1
logP ([1]; logP): -3.16
MIC [2]: 15 µg/mL (≈ 55.9 µM)
log(1/MIC) [2]: -1.176

CCCCCC/C=N/NC(=O)c1ccncc1
logP ([1]; logP): 0.719
MIC [2]: 0.03 µg/mL (≈ 0.129 µM)
log(1/MIC) [2]: 1.523

NNC(=O)c1ccc(C(=O)NN)o1
logP ([1]; logP): -1.63
MIC [2]: 6 µg/mL (≈ 32.6 µM)
log(1/MIC) [2]: -0.7782

O=C(N/N=C/C(O)C(O)C(O)C(O)CO)c1cccs1 (configuration not stated)
logP [1]: -4.917
MIC [2]: 0.6 µg/mL (≈ 1.97 µM)
log(1/MIC) [2]: 0.2218

NNC(=O)C1Cc2ccccc2O1 (configuration not stated)
logP ([1]; logP): -1.32
MIC [2]: 22.5 µg/mL (≈ 126 µM)
log(1/MIC) [2]: -1.352

NNC(=O)c1ccc(Br)o1
logP ([1]; logP): 1.62
MIC [2]: 12 µg/mL (≈ 58.5 µM)
log(1/MIC) [2]: -1.079

NNC(=O)c1ccc([N+](=O)[O-])cc1
logP ([1]; logP): -1.1
MIC [2]: 12 µg/mL (≈ 66.2 µM)
log(1/MIC) [2]: -1.079

NNC(=O)c1cncs1
logP ([1]; logP): -2.2
MIC [2]: 10 µg/mL (≈ 69.8 µM)
log(1/MIC) [2]: -1

CC(C)N(N)C(=O)c1ccco1
logP ([1]; logP): 0.115
MIC [2]: 15 µg/mL (≈ 89.2 µM)
log(1/MIC) [2]: -1.176

NNC(=O)c1ccc(I)cc1
logP ([1]; logP): 0.278
MIC [2]: 6 µg/mL (≈ 22.9 µM)
log(1/MIC) [2]: -0.7782

O=C(NNS(=O)(=O)c1ccc([N+](=O)[O-])cc1)c1ccncc1
logP ([1]; logP): -1.54
MIC [2]: 60 µg/mL (≈ 186 µM)
log(1/MIC) [2]: -1.778

NNC(=O)C1CCC(C(=O)NN)CC1 (configuration not stated)
logP [1]: -4.55
MIC [2]: 300 µg/mL (≈ 1500 µM)
log(1/MIC) [2]: -2.477

NNC(=O)C1CCNCC1
logP ([1]; logP): -3.46
MIC [2]: 600 µg/mL (≈ 4190 µM)
log(1/MIC) [2]: -2.778

NNC(=O)Cc1ccc(Cl)cc1
logP ([1]; logP): -0.503
MIC [2]: 10 µg/mL (≈ 54.2 µM)
log(1/MIC) [2]: -1

O=C(N/N=C\C(O)C(O)C(O)C(O)CO)c1ccncc1 (configuration not stated)
MIC [2]: 0.15 µg/mL (≈ 0.501 µM)
log(1/MIC) [2]: 0.8239

O=C(NNC(=O)c1cccs1)c1cccs1
logP ([1]; logP): -0.738
MIC [2]: 15 µg/mL (≈ 59.4 µM)
log(1/MIC) [2]: -1.176

O=C(N/N=C/C(O)C(O)C(O)CO)c1ccncc1 (configuration not stated)
logP [1]: -5.33
MIC [2]: 0.05 µg/mL (≈ 0.186 µM)
log(1/MIC) [2]: 1.301

NNC(=O)Cc1cc2ccccc2[nH]1
logP ([1]; logP): -1.61
MIC [2]: 60 µg/mL (≈ 317 µM)
log(1/MIC) [2]: -1.778

NNC(=O)c1nc2ccccc2[nH]1
logP ([1]; logP): -1.73
MIC [2]: 15 µg/mL (≈ 85.1 µM)
log(1/MIC) [2]: -1.176

CC1CCCC(NNC(=O)c2ccncc2)C1 (configuration not stated)
logP ([1]; logP): 0.464
MIC [2]: 4 µg/mL (≈ 17.1 µM)
log(1/MIC) [2]: -0.6021

NNC(=O)c1ccc(O)cc1
logP [1]: -1.51
MIC [2]: 12 µg/mL (≈ 78.9 µM)
log(1/MIC) [2]: -1.079

CCC(CC)NNC(=O)c1ccncc1
logP ([1]; logP): -0.19
MIC [2]: 3 µg/mL (≈ 14.5 µM)
log(1/MIC) [2]: -0.4771

CC(=O)Nc1ccc(/C=N\NC(=O)c2ccncc2)cc1
logP ([1]; logP): 0.457
MIC [2]: 0.08 µg/mL (≈ 0.283 µM)
log(1/MIC) [2]: 1.097

NNC(=O)c1cnccn1 [PYRAZINE CARBOXYLIC ACID HYDRAZIDE]
logP ([1]; logP): -2.87
MIC [2]: 1.5 µg/mL (≈ 10.9 µM)
log(1/MIC) [2]: -0.1761

CCCCC/C(C)=N\NC(=O)c1cccs1
logP ([1]; logP): 1.71
MIC [2]: 3 µg/mL (≈ 12.6 µM)
log(1/MIC) [2]: -0.4771

CCCCCCCCCCCCNNC(=O)c1ccncc1
logP ([1]; logP): 3.64
MIC [2]: 0.05 µg/mL (≈ 0.164 µM)
log(1/MIC) [2]: 1.301

NNC(=O)c1cnc(N)s1
logP ([1]; logP): -2.78
MIC [2]: 6 µg/mL (≈ 37.9 µM)
log(1/MIC) [2]: -0.7782

CC(C)(C#N)NNC(=O)c1ccco1
logP ([1]; logP): 1.21
MIC [2]: 3 µg/mL (≈ 15.5 µM)
log(1/MIC) [2]: -0.4771

O=C(N/N=C/C(O)C(O)C(OC1OC(CO)C(O)C(O)C1O)C(O)CO)c1ccncc1 (configuration not stated)
MIC [2]: 0.15 µg/mL (≈ 0.325 µM)
log(1/MIC) [2]: 0.8239

Cc1ccc(C)n1NC(=O)c1ccco1
logP ([1]; logP): 3.04
MIC [2]: 15 µg/mL (≈ 73.4 µM)
log(1/MIC) [2]: -1.176

CN(C)c1ccc(C(=O)NN)cc1
logP ([1]; logP): -0.65
MIC [2]: 6 µg/mL (≈ 33.5 µM)
log(1/MIC) [2]: -0.7782

CC(=O)C/C(C)=N/NC(=O)c1ccncc1
logP ([1]; logP): -3.02
MIC [2]: 0.8 µg/mL (≈ 3.65 µM)
log(1/MIC) [2]: 0.09691

NNC(=O)/C=C/c1ccccc1
logP ([1]; logP): -1.23
MIC [2]: 0.4 µg/mL (≈ 2.47 µM)
log(1/MIC) [2]: 0.3979

NNC(=O)c1ccncc1N
logP ([1]; logP): -3.12
MIC [2]: 1.5 µg/mL (≈ 9.86 µM)
log(1/MIC) [2]: -0.1761

NNC(=O)c1cscn1
logP ([1]; logP): -2.05
MIC [2]: 15 µg/mL (≈ 105 µM)
log(1/MIC) [2]: -1.176

NNC(=O)c1ccc(Cl)cc1
logP [1]: -0.132
MIC [2]: 3 µg/mL (≈ 17.6 µM)
log(1/MIC) [2]: -0.4771

COc1cc(C(=O)NN)ccc1O
logP ([1]; logP): -1.79
MIC [2]: 30 µg/mL (≈ 165 µM)
log(1/MIC) [2]: -1.477

O=C(N/N=C(\CO)C(O)C(O)C(O)CO)c1ccncc1 (configuration not stated)
MIC [2]: 0.06 µg/mL (≈ 0.2 µM)
log(1/MIC) [2]: 1.222

CC(=O)N1CCC(C(=O)NN)CC1
logP ([1]; logP): -3.98
MIC [2]: 6 µg/mL (≈ 32.4 µM)
log(1/MIC) [2]: -0.7782

O=C(NNC(=O)c1ccncc1)c1ccncc1
logP [1]: -2.984
MIC [2]: 8 µg/mL (≈ 33 µM)
log(1/MIC) [2]: -0.9031

NNC(=O)c1ccc(Br)cc1
logP ([1]; logP): 0.018
MIC [2]: 12 µg/mL (≈ 55.8 µM)
log(1/MIC) [2]: -1.079

CC(C)=NNC(=O)c1ccco1
logP ([1]; logP): 0.656
MIC [2]: 4 µg/mL (≈ 24.1 µM)
log(1/MIC) [2]: -0.6021

Cn1cncc1C(=O)NN
logP ([1]; logP): -2.55
MIC [2]: 300 µg/mL (≈ 2140 µM)
log(1/MIC) [2]: -2.477

CNC1C(OC2C(OC3C(O)C(O)C(NC(=N)N)C(O)C3NC(=N)N)OC(C)C2(O)/C=N/NC(=O)c2cccs2)OC(CO)C(O)C1O (configuration not stated)
MIC [2]: 0.25 µg/mL (≈ 0.354 µM)
log(1/MIC) [2]: 0.6021

C/C=C/CCCCCCC/C=N/NC(=O)c1ccncc1
logP ([1]; logP): 2.29
MIC [2]: 0.15 µg/mL (≈ 0.522 µM)
log(1/MIC) [2]: 0.8239

NNC(=O)/C=C/c1ccco1
logP ([1]; logP): -2.02
MIC [2]: 3 µg/mL (≈ 19.7 µM)
log(1/MIC) [2]: -0.4771

CC(C(=O)c1ccncc1)C(/C=N/N)C(=O)c1ccncc1 (configuration not stated)
logP ([1]; logP): -2.43
MIC [2]: 0.5 µg/mL (≈ 1.69 µM)
log(1/MIC) [2]: 0.301

NNC(=O)c1nc2ccccc2s1
logP ([1]; logP): -1.08
MIC [2]: 8 µg/mL (≈ 41.4 µM)
log(1/MIC) [2]: -0.9031

NNC(=O)C(O)c1ccccc1 (configuration not stated)
logP ([1]; logP): -1.37
MIC [2]: 40 µg/mL (≈ 241 µM)
log(1/MIC) [2]: -1.602

NNC(=O)C(O)(c1ccccc1)c1ccccc1
logP ([1]; logP): 0.196
MIC [2]: 100 µg/mL (≈ 413 µM)
log(1/MIC) [2]: -2

NNC(=O)c1ccsc1
logP ([1]; logP): -1.2
MIC [2]: 8 µg/mL (≈ 56.3 µM)
log(1/MIC) [2]: -0.9031

NNC(=O)Cc1ccsc1
logP ([1]; logP): -1.57
MIC [2]: 100 µg/mL (≈ 640 µM)
log(1/MIC) [2]: -2

O=C(NNCc1ccco1)c1ccncc1
logP ([1]; logP): -0.641
MIC [2]: 15 µg/mL (≈ 69.1 µM)
log(1/MIC) [2]: -1.176

NNC(=O)c1nccnc1C(=O)NN
logP [1]: -5.666
MIC [2]: 15 µg/mL (≈ 76.5 µM)
log(1/MIC) [2]: -1.176

CC(C)COc1ccc(/C=N/NC(=O)c2ccncc2)cc1
logP ([1]; logP): 2.81
MIC [2]: 0.2 µg/mL (≈ 0.673 µM)
log(1/MIC) [2]: 0.699

Cc1ccc(C)n1NC(=O)c1ccncc1
logP ([1]; logP): 0.854
MIC [2]: 10 µg/mL (≈ 46.5 µM)
log(1/MIC) [2]: -1

NNC(=O)c1ccncn1
logP ([1]; logP): -2.87
MIC [2]: 20 µg/mL (≈ 145 µM)
log(1/MIC) [2]: -1.301

CC(=O)Nc1ccc(/C=N\NC(=O)c2ccco2)cc1
logP ([1]; logP): 2.64
MIC [2]: 4.5 µg/mL (≈ 16.6 µM)
log(1/MIC) [2]: -0.6532

CC(C)(C#N)NNC(=O)c1cccs1
logP ([1]; logP): 0.147
MIC [2]: 3 µg/mL (≈ 14.3 µM)
log(1/MIC) [2]: -0.4771

NNC(=O)c1csc(N)n1
logP ([1]; logP): -2.69
MIC [2]: 3 µg/mL (≈ 19 µM)
log(1/MIC) [2]: -0.4771

NNC(=O)c1cc2ccccc2o1
logP ([1]; logP): 0.835
MIC [2]: 2 µg/mL (≈ 11.4 µM)
log(1/MIC) [2]: -0.301

NNC(=O)c1cccc(N)c1
logP ([1]; logP): -2.07
MIC [2]: 3 µg/mL (≈ 19.8 µM)
log(1/MIC) [2]: -0.4771

Cc1c(C(=O)NN)sc(C(=O)NN)c1C
logP [1]: -2.888
MIC [2]: 30 µg/mL (≈ 131 µM)
log(1/MIC) [2]: -1.477

NNC(=O)CCC(=O)NN
MIC [2]: 25 µg/mL (≈ 171 µM)
log(1/MIC) [2]: -1.398

NNC(=O)c1ccc[nH]1
logP ([1]; logP): -1.99
MIC [2]: 60 µg/mL (≈ 479 µM)
log(1/MIC) [2]: -1.778

COc1ccc(C(=O)NN)cc1
MIC [2]: 8 µg/mL (≈ 48.1 µM)
log(1/MIC) [2]: -0.9031

Source: ChEMBL document CHEMBL3091347, “Comparison of Multiple Linear Regressions and Neural Networks based QSAR models for the design of new antitubercular compounds” (Eur J Med Chem, 2013)
